Measured values from ChEMBL document CHEMBL5356971, “Optimization of the Antibacterial Spectrum and the Developability Profile of the Novel-Class Natural Product Corramycin” (J Med Chem, 2023).

Key:
[1] = Metabolic stability in mouse kidney assessed as parent compound remaining measured after 4 hrs by UPLC-MS analysis; format: ADME, tissue-based; details: read-out: Stability
[2] = Metabolic stability in mouse lung assessed as parent compound remaining measured after 4 hrs by UPLC-MS analysis; format: ADME, tissue-based; details: mouse lung, read-out: Stability
[3] = Metabolic stability in mouse lung assessed as parent compound remaining measured after 1 hrs by UPLC-MS analysis; format: ADME, tissue-based; details: mouse lung, read-out: Stability
[4] = Metabolic stability in mouse kidney assessed as parent compound remaining measured after 1 hrs by UPLC-MS analysis; format: ADME, tissue-based; details: read-out: Stability
Escherichia coli [5] = assay: Antibacterial activity against Escherichia coli ATCC 35218 infected in Swiss albino mouse model of Septicaemia infection assessed as log reduction in Septicaemia in blood at 1 mg/kg , iv preincubated for 4 hrs followed by bacterial infection and measured after 4 hrs post infection; format: functional; details: time 8 hrs
Escherichia coli [6] = assay: Antibacterial activity against wild type Escherichia coli ATCC 35218 assessed as reduction in microbial growth incubated for 20 to 22 hrs by CLSI based analysis; format: functional; details: time 20-22 hrs
Escherichia coli [7] = assay: Antibacterial activity against Escherichia coli ATCC 35218 harboring SbmA assessed as reduction in microbial growth incubated for 20 to 22 hrs by CLSI based analysis; format: functional; details: time 20-22 hrs
Klebsiella pneumoniae [8] = assay: Antibacterial activity against wild type Klebsiella pneumoniae ATCC 13883 assessed as reduction in microbial growth incubated for 20 to 22 hrs by CLSI based analysis; format: functional; details: time 20-22 hrs
Klebsiella pneumoniae [9] = assay: Antibacterial activity against Klebsiella pneumoniae ATCC 13883 harboring SbmA assessed as reduction in microbial growth incubated for 20 to 22 hrs by CLSI based analysis; format: functional; details: time 20-22 hrs
Acinetobacter baumannii [10] = assay: Antibacterial activity against wild type Acinetobacter baumannii ATCC 19606 assessed as reduction in microbial growth incubated for 20 to 22 hrs by CLSI based analysis; format: functional; details: time 20-22 hrs
Escherichia coli [11] = assay: Antibacterial activity against Escherichia coli ATCC 35218 assessed as reduction in microbial growth incubated for 20 to 22 hrs by CLSI based analysis; format: functional; details: time 20-22 hrs
Klebsiella pneumoniae [12] = assay: Antibacterial activity against Klebsiella pneumoniae ATCC 13883 assessed as reduction in microbial growth incubated for 20 to 22 hrs by CLSI based analysis; format: functional; details: time 20-22 hrs
Acinetobacter baumannii [13] = assay: Antibacterial activity against Acinetobacter baumannii ATCC 19606 assessed as reduction in microbial growth incubated for 20 to 22 hrs by CLSI based analysis; format: functional; details: time 20-22 hrs

SMILES	remaining at 4 h [1] [%]	remaining at 4 h [2] [%]	remaining at 1 h [3] [%]	remaining at 1 h [4] [%]	Activity (Escherichia coli [5]) [log10CFU]	MIC (Escherichia coli [6]) [µg/mL]	MIC (Escherichia coli [7]) [µg/mL]	MIC (Klebsiella pneumoniae [8]) [µg/mL]	MIC (Klebsiella pneumoniae [9]) [µg/mL]	MIC (Acinetobacter baumannii [10]) [µg/mL]	MIC (Escherichia coli [11]) [µg/mL]	MIC (Klebsiella pneumoniae [12]) [µg/mL]	MIC (Acinetobacter baumannii [13]) [µg/mL]
CO[C@@H](CNC(=O)[C@H](NC(=O)[C@H](O)[C@H](C)O)[C@H](O)c1cncn1C)[C@H](O)[C@H](O)C(=O)N(C)[C@@H](Cc1ccc(F)cc1)C(=O)NCC(=O)N[C@H](C(=O)N[C@@H](CO)C(=O)N[C@H](C(=O)N[C@H](C(=O)N[C@@H](CO)C(=O)NCc1cc(=O)c(O)cn1O)C(C)(C)C)C(C)(C)O)C(C)(C)O	28	54	81	44	-5.6	< 0.01	2	0.125	> 32	0.5	–	–	–
CO[C@@H](CNC(=O)[C@H](NC(=O)[C@H](O)[C@H](C)O)[C@H](O)c1cncn1C)[C@H](O)[C@H](O)C(=O)N(C)[C@@H](Cc1ccccc1)C(=O)NCC(=O)N[C@H](C(=O)N[C@@H](C)C(=O)N[C@H](C(=O)N[C@@H](CC(C)C)C(=O)N[C@@H](CO)C(=O)O)C(C)(C)O)C(C)(C)O	–	–	–	–	–	–	–	–	–	–	4	> 32	> 32
CO[C@@H](CNC(=O)[C@H](NC(=O)[C@H](O)[C@H](C)O)[C@H](O)c1cncn1C)[C@H](O)[C@H](O)C(=O)N(C)[C@@H](Cc1ccccc1)C(=O)NCC(=O)N[C@H](C(=O)N[C@@H](CO)C(=O)N[C@H](C(=O)N[C@H](C(=O)N[C@@H](CO)C(=O)N[C@H](CCC(=O)NCc1cc(=O)c(O)cn1O)C(=O)O)C(C)(C)C)C(C)(C)O)C(C)(C)O	67	77	89	100	–	< 0.01	1	0.03	32	0.5	–	–	–
CO[C@@H](CNC(=O)[C@H](NC(=O)[C@H](O)[C@H](C)O)[C@H](O)c1cncn1C)[C@H](O)[C@H](O)C(=O)N(C)[C@@H](Cc1ccccc1)C(=O)NCC(=O)N[C@H](C(=O)N[C@@H](CO)C(=O)N[C@@H](C)C(=O)N[C@@H](CC(C)C)C(=O)N[C@@H](CO)C(=O)O)C(C)(C)O	–	–	–	–	–	–	–	–	–	–	32	64	> 32
CC[C@H](C)[C@H](NC(=O)[C@@H](NC(=O)[C@H](CO)NC(=O)[C@@H](NC(=O)CNC(=O)[C@H](Cc1ccccc1)N(C)C(=O)[C@@H](O)[C@@H](O)[C@H](CNC(=O)[C@H](NC(=O)[C@H](O)[C@H](C)O)[C@H](O)c1cncn1C)OC)C(C)(C)O)C(C)(C)O)C(=O)N[C@@H](CO)C(=O)N[C@@H](CCC(=O)NCc1cc(=O)c(O)cn1O)C(=O)O	42	33	73	84	–	0.03	0.25	0.12	32	0.5	–	–	–
CO[C@@H](CNC(=O)[C@H](NC(=O)[C@H](O)[C@H](C)O)[C@H](O)c1cncn1C)[C@H](O)[C@H](O)C(=O)N(C)[C@@H](Cc1ccccc1)C(=O)N[C@@H](C)C(=O)N[C@H](C(=O)N[C@@H](CO)C(=O)N[C@H](C(=O)N[C@@H](CC(C)C)C(=O)N[C@@H](CO)C(=O)O)C(C)(C)O)C(C)(C)O	–	–	–	–	–	–	–	–	–	–	8	> 32	> 32
CO[C@@H](CNC(=O)[C@H](NC(=O)[C@H](O)[C@H](C)O)[C@H](O)c1cncn1C)[C@H](O)[C@H](O)C(=O)N(C)[C@@H](Cc1ccc(F)cc1)C(=O)NCC(=O)N[C@H](C(=O)N[C@@H](CO)C(=O)N[C@H](C(=O)N[C@H](C(=O)N[C@@H](CCC(=O)NCc1cc(=O)c(O)cn1O)C(=O)NCCN)C(C)(C)C)C(C)(C)O)C(C)(C)O	41	75	88	61	–	0.01	4	0.12	> 32	1	–	–	–
CO[C@@H](CNC(=O)[C@H](NC(=O)[C@H](O)[C@H](C)O)[C@H](O)c1cncn1C)[C@H](O)[C@H](O)C(=O)N(C)[C@@H](Cc1ccccc1)C(=O)N[C@@H](C)C(=O)N[C@H](C(=O)N[C@@H](CO)C(=O)N[C@H](C(=O)N[C@H](C(=O)N[C@@H](CO)C(=O)NCc1cc(=O)c(O)cn1O)C(C)(C)C)C(C)(C)O)C(C)(C)O	75	85	91	85	–	0.06	1	1	> 32	1	–	–	–
CO[C@@H](CNC(=O)[C@H](NC(=O)[C@H](O)[C@H](C)O)[C@H](O)c1cncn1C)[C@H](O)[C@H](O)C(=O)N(C)[C@@H](Cc1ccccc1)C(=O)NCC(=O)N[C@@H](C)C(=O)N[C@@H](CO)C(=O)N[C@H](C(=O)N[C@@H](CC(C)C)C(=O)N[C@@H](CO)C(=O)O)C(C)(C)O	–	–	–	–	–	–	–	–	–	–	> 32	> 32	> 32
CO[C@@H](CNC(=O)[C@H](NC(=O)[C@H](O)[C@H](C)O)[C@H](O)c1cncn1C)[C@H](O)[C@H](O)C(=O)N(C)[C@@H](Cc1ccc(F)cc1)C(=O)NCC(=O)N[C@H](C(=O)N[C@@H](CO)C(=O)N[C@H](C(=O)N[C@H](C(=O)N[C@@H](CO)C(=O)O)C(C)(C)C)C(C)(C)O)C(C)(C)O	109	84	89	109	–	–	–	–	–	–	0.5	0.5	> 32
CO[C@@H](CNC(=O)[C@H](NC(=O)[C@H](O)[C@H](C)O)[C@H](O)c1cncn1C)[C@H](O)[C@H](O)C(=O)N(C)[C@@H](Cc1ccccc1)C(=O)NCC(=O)N[C@H](C(=O)N[C@@H](CO)C(=O)N[C@H](C(=O)N[C@H](C(=O)N[C@@H](CO)C(=O)NCc1cc(=O)c(O)cn1O)C(C)(C)C)C(C)(C)O)C(C)(C)O	84	73	84	99	–	< 0.01	0.5	0.03	> 32	0.5	–	–	–
CO[C@@H](CNC(=O)[C@H](NC(=O)[C@H](O)[C@H](C)O)[C@H](O)c1cncn1C)[C@H](O)[C@H](O)C(=O)N(C)[C@@H](Cc1ccc(F)cc1)C(=O)NCC(=O)N[C@H](C(=O)N[C@@H](CO)C(=O)N[C@H](C(=O)N[C@H](C(=O)N[C@@H](CCC(=O)NCc1cc(=O)c(O)cn1O)C(=O)O)C(C)(C)C)C(C)(C)O)C(C)(C)O	101	86	101	92	–	0.01	0.25	0.12	> 32	0.25	–	–	–
CO[C@@H](CNC(=O)[C@H](NC(=O)[C@H](O)[C@H](C)O)[C@H](O)c1cncn1C)[C@H](O)[C@H](O)C(=O)N(C)[C@@H](Cc1ccccc1)C(=O)NCC(=O)N[C@H](C(=O)N[C@@H](CO)C(=O)N[C@H](C(=O)N[C@@H](CC(C)C)C(=O)N[C@@H](C)C(=O)O)C(C)(C)O)C(C)(C)O	–	–	–	–	–	–	–	–	–	–	4	16	> 32
CO[C@@H](CNC(=O)[C@H](N)[C@H](O)c1cncn1C)[C@H](O)[C@H](O)C(=O)N(C)[C@@H](Cc1ccccc1)C(=O)NCC(=O)N[C@H](C(=O)N[C@@H](CO)C(=O)N[C@H](C(=O)N[C@@H](CC(C)C)C(=O)N[C@@H](CO)C(=O)O)C(C)(C)O)C(C)(C)O	–	–	–	–	–	–	–	–	–	–	> 64	> 64	> 32
CO[C@@H](CNC(=O)[C@H](NC(=O)[C@H](O)[C@H](C)O)[C@H](O)c1cncn1C)[C@H](O)[C@H](O)C(=O)N(C)[C@@H](Cc1ccccc1)C(=O)NCC(=O)N[C@H](C(=O)N[C@@H](CO)C(=O)N[C@H](C(=O)N[C@@H](C)C(=O)N[C@@H](CO)C(=O)O)C(C)(C)O)C(C)(C)O	–	–	–	–	–	–	–	–	–	–	8	64	> 32
